From ChEMBL document CHEMBL3885881, “DrugMatrix”

Species on record: Rattus norvegicus
Test: DrugMatrix - Regimen: Daily Repeat
Assay type: toxicity, organism-based, Sprague-Dawley
Parameters: regimen Daily Repeat, gender Male, age 6-8 weeks
Settings: in vivo, po, route oral GAVAGE, vehicle .5 % CMC; for ABSOLUTE BASOPHIL / ABSOLUTE EOSINOPHIL / ABSOLUTE LYMPHOCYTE / ABSOLUTE MONOCYTE / ABSOLUTE SEGMENTED NEUTROPHIL / BASOPHIL / EOSINOPHIL / ERYTHROCYTE COUNT / HEMATOCRIT / HEMOGLOBIN / LEUKOCYTE COUNT / LYMPHOCYTE / MEAN CORPUSCULAR HEMOGLOBIN / MEAN CORPUSCULAR HEMOGLOBIN CONCENTRATION / MEAN CORPUSCULAR VOLUME / MONOCYTE / NEUTROPHIL / NUCLEATED RED BLOOD CELLS / PLATELET COUNT: tissue Blood; for ALANINE AMINOTRANSFERASE / ALBUMIN / ALKALINE PHOSPHATASE / ASPARTATE AMINOTRANSFERASE / BLOOD UREA NITROGEN / CARBON DIOXIDE / CHLORIDE / CHOLESTEROL / CREATINE PHOSPHOKINASE / CREATININE / GLUCOSE / LACTATE DEHYDROGENASE / LIPASE / PHOSPHORUS / POTASSIUM / SODIUM / TOTAL BILIRUBIN / TOTAL PROTEIN / URIC ACID: tissue Plasma
[1] = 100 mg/kg, 72 h, dose level Low, time 3 day
[2] = 100 mg/kg, 120 h, dose level Low, time 5 day
[3] = 1000 mg/kg, 72 h, dose level High, time 3 day
[4] = 1000 mg/kg, 120 h, dose level High, time 5 day

CC1CN(c2cc3c(cc2F)c(=O)c(C(=O)O)cn3-c2ccc(F)cc2F)CCN1 (configuration not stated) [TEMAFLOXACIN]
ABSOLUTE BASOPHIL [1]: 0 CELLS/uL | ABSOLUTE EOSINOPHIL [1]: 0 CELLS/uL | ABSOLUTE LYMPHOCYTE [1]: 10703 CELLS/uL | ABSOLUTE MONOCYTE [1]: 236.33 CELLS/uL | ABSOLUTE SEGMENTED NEUTROPHIL [1]: 1027.33 CELLS/uL | BASOPHIL [1]: 0% | EOSINOPHIL [1]: 0% | ERYTHROCYTE COUNT [1]: 5.1 x10E6/uL | HEMATOCRIT [1]: 32.03% | HEMOGLOBIN [1]: 12.13 G/DL | LEUKOCYTE COUNT [1]: 11.97 x10E3/uL | LYMPHOCYTE [1]: 88.33% | MEAN CORPUSCULAR HEMOGLOBIN [1]: 23.83 pg | MEAN CORPUSCULAR HEMOGLOBIN CONCENTRATION [1]: 37.93 G/DL | MEAN CORPUSCULAR VOLUME [1]: 62.83 fL | MONOCYTE [1]: 2.33% | NEUTROPHIL [1]: 9.33% | NUCLEATED RED BLOOD CELLS [1]: 0 /100WBC | PLATELET COUNT [1]: 1089.33 x10E3/uL | ALANINE AMINOTRANSFERASE [1]: 64.67 u/L | ALBUMIN [1]: 4.07 G/DL | ALKALINE PHOSPHATASE [1]: 401.33 u/L | ASPARTATE AMINOTRANSFERASE [1]: 92.33 u/L | BLOOD UREA NITROGEN [1]: 15.67 mg/dL | CARBON DIOXIDE [1]: 35 mmol/L | CHLORIDE [1]: 98.67 MEQ/L | CHOLESTEROL [1]: 91 mg/dL | CREATINE PHOSPHOKINASE [1]: 525.67 u/L | CREATININE [1]: 0.24 mg/dL | GLUCOSE [1]: 143 mg/dL | LACTATE DEHYDROGENASE [1]: 134.67 u/L | LIPASE [1]: 9 u/L | PHOSPHORUS [1]: 12.2 mg/dL | POTASSIUM [1]: 5.94 MEQ/L | SODIUM [1]: 143.63 MEQ/L | TOTAL BILIRUBIN [1]: 0.23 mg/dL | TOTAL PROTEIN [1]: 6.3 G/DL | URIC ACID [1]: 0.53 mg/dL | ABSOLUTE BASOPHIL [2]: 0 CELLS/uL | ABSOLUTE EOSINOPHIL [2]: 33 CELLS/uL | ABSOLUTE LYMPHOCYTE [2]: 9070.33 CELLS/uL | ABSOLUTE MONOCYTE [2]: 218.67 CELLS/uL | ABSOLUTE SEGMENTED NEUTROPHIL [2]: 878 CELLS/uL | BASOPHIL [2]: 0% | EOSINOPHIL [2]: 0.33% | ERYTHROCYTE COUNT [2]: 5.56 x10E6/uL | HEMATOCRIT [2]: 33.53% | HEMOGLOBIN [2]: 12.97 G/DL | LEUKOCYTE COUNT [2]: 10.2 x10E3/uL | LYMPHOCYTE [2]: 88.67% | MEAN CORPUSCULAR HEMOGLOBIN [2]: 23.37 pg | MEAN CORPUSCULAR HEMOGLOBIN CONCENTRATION [2]: 38.7 G/DL | MEAN CORPUSCULAR VOLUME [2]: 60.37 fL | MONOCYTE [2]: 2% | NEUTROPHIL [2]: 9% | NUCLEATED RED BLOOD CELLS [2]: 0 /100WBC | PLATELET COUNT [2]: 1110.67 x10E3/uL | ALANINE AMINOTRANSFERASE [2]: 48.67 u/L | ALBUMIN [2]: 4.43 G/DL | ALKALINE PHOSPHATASE [2]: 449.67 u/L | ASPARTATE AMINOTRANSFERASE [2]: 74.33 u/L | BLOOD UREA NITROGEN [2]: 15.33 mg/dL | CARBON DIOXIDE [2]: 37 mmol/L | CHLORIDE [2]: 98 MEQ/L | CHOLESTEROL [2]: 89.67 mg/dL | CREATINE PHOSPHOKINASE [2]: 298.67 u/L | CREATININE [2]: 0.34 mg/dL | GLUCOSE [2]: 138.67 mg/dL | LACTATE DEHYDROGENASE [2]: 126 u/L | LIPASE [2]: 7.67 u/L | PHOSPHORUS [2]: 12.27 mg/dL | POTASSIUM [2]: 5.95 MEQ/L | SODIUM [2]: 144.33 MEQ/L | TOTAL BILIRUBIN [2]: 0.23 mg/dL | TOTAL PROTEIN [2]: 6.37 G/DL | URIC ACID [2]: 0.8 mg/dL | ABSOLUTE BASOPHIL [3]: 0 CELLS/uL | ABSOLUTE EOSINOPHIL [3]: 0 CELLS/uL | ABSOLUTE LYMPHOCYTE [3]: 8968.67 CELLS/uL | ABSOLUTE MONOCYTE [3]: 91.33 CELLS/uL | ABSOLUTE SEGMENTED NEUTROPHIL [3]: 740 CELLS/uL | BASOPHIL [3]: 0% | EOSINOPHIL [3]: 0% | ERYTHROCYTE COUNT [3]: 5.3 x10E6/uL | HEMATOCRIT [3]: 32.17% | HEMOGLOBIN [3]: 12.37 G/DL | LEUKOCYTE COUNT [3]: 9.8 x10E3/uL | LYMPHOCYTE [3]: 91.33% | MEAN CORPUSCULAR HEMOGLOBIN [3]: 23.43 pg | MEAN CORPUSCULAR HEMOGLOBIN CONCENTRATION [3]: 38.47 G/DL | MEAN CORPUSCULAR VOLUME [3]: 60.8 fL | MONOCYTE [3]: 1% | NEUTROPHIL [3]: 7.67% | NUCLEATED RED BLOOD CELLS [3]: 0 /100WBC | PLATELET COUNT [3]: 1214 x10E3/uL | ALANINE AMINOTRANSFERASE [3]: 59 u/L | ALBUMIN [3]: 3.67 G/DL | ALKALINE PHOSPHATASE [3]: 384 u/L | ASPARTATE AMINOTRANSFERASE [3]: 87 u/L | BLOOD UREA NITROGEN [3]: 13 mg/dL | CARBON DIOXIDE [3]: 35.33 mmol/L | CHLORIDE [3]: 99 MEQ/L | CHOLESTEROL [3]: 84.33 mg/dL | CREATINE PHOSPHOKINASE [3]: 684.67 u/L | CREATININE [3]: 0.26 mg/dL | GLUCOSE [3]: 138.33 mg/dL | LACTATE DEHYDROGENASE [3]: 131 u/L | LIPASE [3]: 9 u/L | PHOSPHORUS [3]: 11.53 mg/dL | POTASSIUM [3]: 5.74 MEQ/L | SODIUM [3]: 143.93 MEQ/L | TOTAL BILIRUBIN [3]: 0.2 mg/dL | TOTAL PROTEIN [3]: 5.97 G/DL | URIC ACID [3]: 0.37 mg/dL | ABSOLUTE BASOPHIL [4]: 0 CELLS/uL | ABSOLUTE EOSINOPHIL [4]: 32 CELLS/uL | ABSOLUTE LYMPHOCYTE [4]: 12898.67 CELLS/uL | ABSOLUTE MONOCYTE [4]: 145 CELLS/uL | ABSOLUTE SEGMENTED NEUTROPHIL [4]: 424.33 CELLS/uL | BASOPHIL [4]: 0% | EOSINOPHIL [4]: 0.33% | ERYTHROCYTE COUNT [4]: 5.35 x10E6/uL | HEMATOCRIT [4]: 31.83% | HEMOGLOBIN [4]: 12.7 G/DL | LEUKOCYTE COUNT [4]: 13.5 x10E3/uL | LYMPHOCYTE [4]: 95.33% | MEAN CORPUSCULAR HEMOGLOBIN [4]: 23.77 pg | MEAN CORPUSCULAR HEMOGLOBIN CONCENTRATION [4]: 39.9 G/DL | MEAN CORPUSCULAR VOLUME [4]: 59.53 fL | MONOCYTE [4]: 1% | NEUTROPHIL [4]: 3.33% | NUCLEATED RED BLOOD CELLS [4]: 0 /100WBC | PLATELET COUNT [4]: 1130.67 x10E3/uL | ALANINE AMINOTRANSFERASE [4]: 52.33 u/L | ALBUMIN [4]: 3.8 G/DL | ALKALINE PHOSPHATASE [4]: 253 u/L | ASPARTATE AMINOTRANSFERASE [4]: 80.33 u/L | BLOOD UREA NITROGEN [4]: 13.67 mg/dL | CARBON DIOXIDE [4]: 33.33 mmol/L | CHLORIDE [4]: 100.33 MEQ/L | CHOLESTEROL [4]: 76.67 mg/dL | CREATINE PHOSPHOKINASE [4]: 375.67 u/L | CREATININE [4]: 0.32 mg/dL | GLUCOSE [4]: 145 mg/dL | LACTATE DEHYDROGENASE [4]: 188.33 u/L | LIPASE [4]: 8.33 u/L | PHOSPHORUS [4]: 11.47 mg/dL | POTASSIUM [4]: 5.93 MEQ/L | SODIUM [4]: 145.13 MEQ/L | TOTAL BILIRUBIN [4]: 0.2 mg/dL | TOTAL PROTEIN [4]: 5.77 G/DL | URIC ACID [4]: 0.83 mg/dL
